# Where a name gives a salt, the structure may show the parent alone. Read-outs that look alike come from different tables or passages of the source.
# What was measured:
# [1] = Inhalation Kill (animals); format: in vivo; conditions: Table XVI
# Experimental: Toxicity tests were performed on commercially available (meth) acrylate oligomers and diluents and on commercially available vinyl ether and maleate diluents.
# [2] = not given; remark: listed apart in the source
# [3] = Viscosity (Brookfield viscometer); format: physicochemical; conditions: 25° C., product as prepared
# Experimental: The viscosity, expressed in pascal seconds (Pa s), was measured using a Brookfield Model RVTD viscometer operated in accordance with the instructions provided therewith. The temperature of each sample tested was 25° C.
# The viscosity of the saturated ester oligomers having maleate end groups was determined utilizing a Brookfield RTV viscometer.
viscosity [3],viscosity ([3]; listed as Component 3) [cP],SMILES,"Skin Irritation (Table XVI, max. = 8)",Inhalation Kill [1],"Eye Irritation ([2]; Table XVI, max. = 10)",Skin Irritation (in vivo),Eye Irritation ([2]; in vivo)
–,–,"C=CC(=O)OCCCCCCOC(=O)C=C [1,6-hexanediol diacrylate]",3,0 of 6,2,–,–
–,–,C=CC(=O)OCCO [2-hydroxyethyl acrylate],6,1 of 6,9,–,–
–,–,C=CC(=O)OCCOc1ccccc1 [2-phenoxyethyl acrylate],3,0 of 6,1,–,–
–,–,CCOC(=O)/C=C\C(=O)OCC [Diethyl maleate],mild,–,mild,–,–
–,–,C=CC(=O)OCCOCCOC(=O)C=C [Diethyleneglycol diacrylate],5,0 of 6,9,–,–
–,–,COC(=O)/C=C\C(=O)OC [Dimethyl maleate],–,–,–,5.47,moderate
–,–,CCCCOC(=O)/C=C\C(=O)OCCCC [Dubutyl maleate],mild,–,–,–,–
about 36 cP,36,"C=COCCCCOC(=O)/C=C\C(=O)OCC [Example 1, 4-vinyloxybutyl ethyl maleate]",–,–,–,–,–
–,–,C=CC(=O)OCC(C)(C)COC(=O)C=C [Neopentylglycol diacrylate],5,1 of 6,8,–,–
–,–,C=CC(=O)OCC(CO)(COC(=O)C=C)COC(=O)C=C [Pentaerythritol triacrylate],2,0 of 6,10,–,–

# Source: patent US5334456A, “Free-radical curable compositions” (priority 1992, dated 1994)
